US6525001B1, “Substituted pyrimidine and pyridine herbicides” (Mid-American Commercialization Corporation, priority 1997, dated 2003)

Tests used:
Type in all cases: in vivo
Parameters in all cases: key: 0 is no effect; 10 is complete control
[1] = system: smallflower flatsedge (Cyperus difformis); assay: Test B flood test
Summary of the method: (§1)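 Read-out is a visual response score from 0 (no effect) to 10 (complete control), assigned by comparison with untreated controls. Treatment was applied at the 2-leaf stage, and plants stayed in the greenhouse for twelve to sixteen days before scoring.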

[2] = system: duck salad (Heteranthera limosa); assay: Test B flood test
Summary of the method: as §1

[3] = system: rice (Oryza sativa); assay: Test B flood test
Summary of the method: as §1

[4] = system: bamyardgrass (Echinochloa crus-galli); assay: Test B flood test
Summary of the method: as §1

[5] = system: wheat (Triticum aestivum); assay: Test B pre-/postemergence
Summary of the method: (§2)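 Compounds in a surfactant-containing, non-phytotoxic solvent blend are applied to freshly planted seed (preemergence) and, concurrently, to seedlings of 2 to 18 cm at 1–4 leaves (postemergence). Plants stay in the greenhouse twelve to sixteen days and are then scored visually from 0 (no effect) to 10 (complete control).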

[6] = system: rape (Brassica napus); assay: Test B pre-/postemergence
Summary of the method: as §2

[7] = system: giant foxtail (Setaria faberii); assay: Test B pre-/postemergence
Summary of the method: as §2

[8] = system: blackgrass (Alopecurus myosuroides); assay: Test B pre-/postemergence; details: for Blackgrass plant response rating: Preemergence
Summary of the method: as §2

[9] = system: velvetleaf (Abutilon theophrasti); assay: Test B pre-/postemergence
Summary of the method: as §2

[10] = system: bedstraw (Galium aparine); assay: Test B pre-/postemergence; details: for Bedstraw plant response rating: Preemergence
Summary of the method: as §2

[11] = system: purple nutsedge (Cyperus rotundus); assay: Test B pre-/postemergence
Summary of the method: as §2

[12] = system: cocklebur (Xanthium strumarium); assay: Test B pre-/postemergence; details: for Cocklebur plant response rating: Preemergence
Summary of the method: as §2

[13] = system: broadleaf signalgrass (Brachiaria decumbens); assay: Test B pre-/postemergence; details: for B. signalgrass plant response rating: Preemergence
Summary of the method: as §2

[14] = system: sugar beet (Beta vulgaris); assay: Test B pre-/postemergence
Summary of the method: as §2

[15] = system: wild oat (Avena fatua); assay: Test B pre-/postemergence
Summary of the method: as §2

[16] = system: soybean (Glycine max); assay: Test B pre-/postemergence
Summary of the method: as §2

[17] = system: momingglory (Ipomoea hederacea); assay: Test B pre-/postemergence
Summary of the method: as §2

[18] = system: pigweed (Amaranthus retroflexus); assay: Test B pre-/postemergence
Summary of the method: as §2

[19] = system: crabgrass (Digitaria sanguinalis); assay: Test B pre-/postemergence; details: for Crabgrass plant response rating: Preemergence
Summary of the method: as §2

[20] = system: corn (Zea mays); assay: Test B pre-/postemergence; details: for Corn plant response rating: Preemergence
Summary of the method: as §2

[21] = Rate 62 g/ha, Postemergence (flood test)
[22] = Rate 125 g/ha, Postemergence section (flood test species)
[23] = Rate 250 g/ha, Postemergence (flood test species)
[24] = Rate 125 g/ha, Postemergence, flood test
[25] = Rate 250 g/ha, Postemergence (so in the source)

`Cc1cnc(-c2ccc(Cl)cc2)nc1Cc1cccc(C#N)c1` [Compound 33] was tested, and the “Plant response rating, S. Flatsedge” value [1, 21] was 3, the “S. Flatsedge plant response rating” value [1, 22] was 7 and the “Plant response rating, S. Flatsedge” value [1, 23] was 8. For the same compound, the “Plant response rating, Ducksalad” value [2, 21] was 0, the “Plant response rating, Ducksalad” value [2, 24] was 1 and the “Plant response rating, Ducksalad” value [2, 23] was 2. The “Plant response rating, Rice” value [3, 21] was 1, the “Rice plant response rating” value [3, 22] was 1 and the “Plant response rating, Rice” value [3, 23] was 3. For the same compound, the “Plant response rating, Barnyardgrass” value [4, 21] was 1, the “Plant response rating, Barnyardgrass” value [4, 24] was 2 and the “Plant response rating, Barnyardgrass” value [4, 23] was 3. The “Wheat plant response rating” value ([5]; Rate 62 g/ha, Postemergence) was 0, the “Wheat plant response rating” value ([5]; Rate 62 g/ha, Preemergence) was 0 and the “Wheat plant response rating” value ([5]; Rate 125 g/ha, Postemergence) was 1. For the same compound, the “Plant response rating, Wheat” value ([5]; Rate 125 g/ha, Preemergence) was 0, the “Plant response rating, Wheat” value ([5]; Rate 250 g/ha, Postemergence) was 1 and the “Plant response rating, Wheat” value [5, 25] was 1. The “Plant response rating, Rape” value ([6]; Rate 62 g/ha, Postemergence) was 6, the “Rape plant response rating” value ([6]; Rate 62 g/ha, Preemergence) was 0 and the “Rape plant response rating” value ([6]; Rate 125 g/ha, Postemergence) was 7. For the same compound, the “Rape plant response rating” value ([6]; Rate 125 g/ha, Preemergence) was 0, the “Plant response rating, Rape” value ([6]; Rate 250 g/ha, Postemergence) was 7 and the “Plant response rating, Rape” value [6, 25] was 2. For the same compound, the “Plant response rating, Giant foxtail” value ([7]; Rate 62 g/ha, Postemergence) was 0, the “Giant foxtail plant response rating” value ([7]; Rate 62 g/ha, Preemergence) was 0 and the “Giant foxtail plant response rating” value ([7]; Rate 125 g/ha, Postemergence) was 0. For the same compound, the “Giant foxtail plant response rating” value ([7]; Rate 125 g/ha, Preemergence) was 1, the “Plant response rating, Giant foxtail” value ([7]; Rate 250 g/ha, Postemergence) was 1 and the “Plant response rating, Giant foxtail” value [7, 25] was 1. The “Plant response rating, Blackgrass” value ([8]; Rate 62 g/ha, Postemergence) was 0, the “Blackgrass plant response rating” value ([8]; Rate 62 g/ha) was 0 and the “Plant response rating, Blackgrass” value ([8]; Rate 125 g/ha, Postemergence) was 1. For the same compound, the “Blackgrass plant response rating” value ([8]; Rate 125 g/ha) was 0, the “Plant response rating, Blackgrass” value ([8]; Rate 250 g/ha, Postemergence) was 2 and the “Plant response rating, Blackgrass” value [8, 25] was 0. The “Plant response rating, Velvetleaf” value ([9]; Rate 62 g/ha, Postemergence) was 1, the “Velvetleaf plant response rating” value ([9]; Rate 62 g/ha, Preemergence) was 0 and the “Velvetleaf plant response rating” value ([9]; Rate 125 g/ha, Postemergence) was 4. For the same compound, the “Plant response rating, Velvetleaf” value ([9]; Rate 125 g/ha, Preemergence) was 0, the “Plant response rating, Velvetleaf” value ([9]; Rate 250 g/ha, Postemergence) was 6 and the “Plant response rating, Velvetleaf” value [9, 25] was 1. For the same compound, the “Plant response rating, Bedstraw” value ([10]; Rate 62 g/ha, Postemergence) was 9, the “Bedstraw plant response rating” value ([10]; Rate 62 g/ha) was 0 and the “Plant response rating, Bedstraw” value ([10]; Rate 125 g/ha, Postemergence) was 9. For the same compound, the “Bedstraw plant response rating” value ([10]; Rate 125 g/ha) was 1, the “Plant response rating, Bedstraw” value ([10]; Rate 250 g/ha, Postemergence) was 9 and the “Plant response rating, Bedstraw” value [10, 25] was 2. The “Plant response rating, Nutsedge” value ([11]; Rate 62 g/ha, Postemergence) was 0, the “Nutsedge plant response rating” value ([11]; Rate 62 g/ha, Preemergence) was 0 and the “Nutsedge plant response rating” value ([11]; Rate 125 g/ha, Postemergence) was 0. The “Nutsedge plant response rating” value ([11]; Rate 125 g/ha, Preemergence) was 0, the “Plant response rating, Nutsedge” value ([11]; Rate 250 g/ha, Postemergence) was 0 and the “Plant response rating, Cocklebur” value ([12]; Rate 62 g/ha, Postemergence) was 3. For the same compound, the “Cocklebur plant response rating” value ([12]; Rate 62 g/ha) was 0, the “Plant response rating, Cocklebur” value ([12]; Rate 125 g/ha, Postemergence) was 6 and the “Cocklebur plant response rating” value ([12]; Rate 125 g/ha) was 0. The “Plant response rating, Cocklebur” value ([12]; Rate 250 g/ha, Postemergence) was 6, the “Plant response rating, Cocklebur” value [12, 25] was 0 and the “Plant response rating, B. signalgrass” value ([13]; Rate 62 g/ha, Postemergence) was 1. The “B. signalgrass plant response rating” value ([13]; Rate 62 g/ha) was 0, the “Plant response rating, B. signalgrass” value ([13]; Rate 125 g/ha, Postemergence) was 1 and the “B. signalgrass plant response rating” value ([13]; Rate 125 g/ha) was 1. For the same compound, the “Plant response rating, B. signalgrass” value ([13]; Rate 250 g/ha, Postemergence) was 2, the “Plant response rating, B. signalgrass” value ([13]; Rate 250 g/ha, Postemergence as printed in head r139 (second section for compounds 26-50)) was 1 and the “Plant response rating, Sugarbeets” value ([14]; Rate 62 g/ha, Postemergence) was 10. For the same compound, the “Sugarbeets plant response rating” value ([14]; Rate 62 g/ha, Preemergence) was 0, the “Sugarbeets plant response rating” value ([14]; Rate 125 g/ha, Postemergence) was 10 and the “Plant response rating, Sugarbeets” value ([14]; Rate 125 g/ha, Preemergence) was 1. For the same compound, the “Plant response rating, Sugarbeets” value ([14]; Rate 250 g/ha, Postemergence) was 10, the “Plant response rating, Sugarbeets” value [14, 25] was 4 and the “Wild oats plant response rating” value ([15]; Rate 62 g/ha, Postemergence) was 1. The “Wild oats plant response rating” value ([15]; Rate 62 g/ha, Preemergence) was 0, the “Wild oats plant response rating” value ([15]; Rate 125 g/ha, Postemergence) was 2 and the “Plant response rating, Wild oats” value ([15]; Rate 125 g/ha, Preemergence) was 0. The “Plant response rating, Wild oats” value ([15]; Rate 250 g/ha, Postemergence) was 3, the “Plant response rating, Wild oats” value [15, 25] was 1 and the “Plant response rating, Soybean” value ([16]; Rate 62 g/ha, Postemergence) was 1. The “Soybean plant response rating” value ([16]; Rate 62 g/ha, Preemergence) was 0, the “Soybean plant response rating” value ([16]; Rate 125 g/ha, Postemergence) was 2 and the “Plant response rating, Soybean” value ([16]; Rate 125 g/ha, Preemergence) was 0. The “Plant response rating, Soybean” value ([16]; Rate 250 g/ha, Postemergence) was 4, the “Plant response rating, Soybean” value [16, 25] was 0 and the “Plant response rating, Morningglory” value ([17]; Rate 62 g/ha, Postemergence) was 2. The “Morningglory plant response rating” value ([17]; Rate 62 g/ha, Preemergence) was 0, the “Morningglory plant response rating” value ([17]; Rate 125 g/ha, Postemergence) was 5 and the “Morningglory plant response rating” value ([17]; Rate 125 g/ha, Preemergence) was 0. For the same compound, the “Plant response rating, Morningglory” value ([17]; Rate 250 g/ha, Postemergence) was 5, the “Plant response rating, Morningglory” value [17, 25] was 0 and the “Plant response rating, Redroot pigweed” value ([18]; Rate 62 g/ha, Postemergence) was 1. The “Redroot pigweed plant response rating” value ([18]; Rate 62 g/ha, Preemergence) was 0, the “Redroot pigweed plant response rating” value ([18]; Rate 125 g/ha, Postemergence) was 2 and the “Redroot pigweed plant response rating” value ([18]; Rate 125 g/ha, Preemergence) was 0. For the same compound, the “Plant response rating, Redroot pigweed” value ([18]; Rate 250 g/ha, Postemergence) was 7, the “Plant response rating, Redroot pigweed” value [18, 25] was 2 and the “Plant response rating, Crabgrass” value ([19]; Rate 62 g/ha, Postemergence) was 0. For the same compound, the “Crabgrass plant response rating” value ([19]; Rate 62 g/ha) was 0, the “Plant response rating, Crabgrass” value ([19]; Rate 125 g/ha, Postemergence) was 0 and the “Crabgrass plant response rating” value ([19]; Rate 125 g/ha) was 0. The “Plant response rating, Crabgrass” value ([19]; Rate 250 g/ha, Postemergence) was 1, the “Plant response rating, Crabgrass” value [19, 25] was 0 and the “Plant response rating, Corn” value ([20]; Rate 62 g/ha, Postemergence) was 1. For the same compound, the “Corn plant response rating” value ([20]; Rate 62 g/ha) was 0, the “Plant response rating, Corn” value ([20]; Rate 125 g/ha, Postemergence) was 1 and the “Corn plant response rating” value ([20]; Rate 125 g/ha) was 0. For the same compound, the “Plant response rating, Corn” value ([20]; Rate 250 g/ha, Postemergence) was 1 and the “Plant response rating, Corn” value [20, 25] was 0.
